Test in all cases: Serum ELISA after dietary supplementation
Holding throughout (assay type): in vivo, Gallus gallus domesticus

One test has as its system Interleukin-1β. To be noted: dietary supplementation 35 days, between groups. From the text: (§1) A total of 189 male or female 2-day-old G. g. domesticus were randomly assigned to seven dietary treatment groups, including rEP (0.75, 1.5, 3.0, 6.0 and 12%), spiraline-A (Juily Pharmaceutical Co., LTD. San Sia, Taipei Hsien, Taiwan), and basal diet groups. Each treatment group consisted of one cage with twenty-seven G. g. domesticus. The composition of the fodder is presented in S1b–S1d Table. The animals were allowed ad libitum access to fodder and water for the duration of the trial, beginning from 3 days of age. The total time of feeding was 35 days. The G. g. domesticus were maintained in a cage (animal container) with a constant environment (28.9–37.8°C, 12/12 h light-dark cycle). rEP fodder and fecal sewage were not directly discharged to the outside.
(§2) Body weight and survival rate were monitored daily during the experimental period. The weight gain, feed efficiency (FE), protein efficiency ratio (PER), and survival percentage were calculated. After 35 days of treatment, the G. g. domesticus were euthanized, blood samples were collected and serum was obtained by centrifugation (3000 ×g for 15 min at 4°C). Serum was kept at -80°C until analysis. Enzyme-linked immunosorbent assay (ELISA) was performed in accordance with the manufacturer’s standard procedures to determine the levels of immunological factors, including TNF-α, Interleukin-1β, Interleukin-6, Interleukin-10, Lysozyme, Immunoglobin-G (IgG), and Interferon-γ. Chicken serum samples were analyzed with ELISA kits from ABclonal Inc. (Woburn, MA, USA). After the reaction was completed, the optical density (OD) was measured at 450 nm on a microplate reader (SpectraMax® i3, Molecular Devices, Lagerhausstrasse, Wals, Austria).

For the next test, the system named is TNF-α. To be noted: dietary supplementation 35 days, between groups.
Source text: as §1, §2

The test system of a further test is Lysozyme. To be noted: dietary supplementation 35 days, between groups.
Source text: as §1, §2

The next test relates to Interferon-γ. To be noted: 1.5% in diet, 35 days, compared to antibiotic group (P = 0.0043) and control group (P = 0.0073).
Source text: as §1, §2

The test system of the next test is Interleukin-6. The note with it: dietary supplementation 35 days, between groups.
Source text: as §1, §2

The test system of another test is Interleukin-10. To be noted: rEP-supplemented group, 35 days, compared to control group (P = 0.0341), not different than the antibiotic group.
Source text: as §1, §2

Take “EFFIFHIIKGLFHAGRMIHGLVNRRRHRHHHHHH [rEP, recombinant His-tagged Epinephelus lanceolatus piscidin from Pichia pastoris, used as crude culture supernatant or spray-dried powder]”: the “Serum IL-1β level” value in the test on Interleukin-1β is reported as “No significant changes”. For the same sequence, the “Serum TNF-α level” value in the test on TNF-α is “No significant changes”. Further, the “Serum Lysozyme (Lyz) level” value in the test with Lysozyme is “No significant changes”. Besides, in the test with Interferon-γ, the “Serum IFN-γ level” value was “significantly increased”. In the test with Interleukin-6, the “Serum IL-6 level” value was “No significant changes”. Besides, the “Serum IL-10 level” value with Interleukin-10 is recorded as “significantly higher”.

For the origin of these results see paper PMC7065771, “Dietary supplementation of recombinant antimicrobial peptide Epinephelus lanceolatus piscidin improves growth performance and immune response in Gallus gallus domesticus” (PLoS ONE, 2020).
